According to patent US10130713B2, “Cocrystalline DHEA formulations” (University of Houston System, priority 2013, dated 2018):
≈ marks a conversion by molar mass, not a printed value. Like-named read-outs stand apart in the source and are kept apart here.

Legend:
Format in all cases: physicochemical
[1] = Dissolution study with DHEA concentration measured by HPLC over time; details: for solubility: aqueous dissolution study (pH 6.8 buffer, ambient temperature)
Procedure: High performance liquid chromatography (HPLC) analyses were carried out on an Agilent 1100 series instrument equipped with a UV detector using the following materials and operating parameters:
Calibration data used previously and standards analyzed prior to the samples were used to generate concentrations from peak areas.
At selected time points (10 minutes, 30 minutes, 1 hour, 2 hours, and 5 hours) the slurry was centrifuged and 700 μL of the liquid phase was withdrawn and passed through a 0.5 μm PTFE filter. The filtrate was concentrated in a purge of dry air until all the water evaporated, leaving a solid that was analyzed by HPLC. […] The pH of the filtrate was measured using a Thermo Scientific Orion 3 Star pH meter. The collected solid was analyzed by XRPD. […]
Further dissolution studies with concentration measurements at 10 minutes, 30 minutes, 1 hour, 2 hours, 5 hours, and overnight were conducted. Three such experiments were carried out, using DHEA polymorph form I (FI), the DHEA/D-fructose cocrystal, and the DHEA/glutaric acid cocrystal. […] All of the data are summarized in FIG. 10 through FIG. 14 and the data are plotted in FIG. 15 through FIG. 19.
Note that in each of the plots shown in […] the results of two experiments (time points at <10 min and time points at >10 minutes) are shown on one graph. In order to better visualize the curves, the x axes are in logarithmic scales (FIGS. 15-17). The tables shown in FIGS. 12 and 13 were derived from single experiments having time points at <10 minutes. The x axes on those plots are in linear scales (FIGS. 18 and 19).

[2] = Slurry of DHEA in simulated intestinal fluid, solid form by XRPD; details: about 3 hrs at room temperature, XRPD 3171
[3] = Dissolution of formulation slurries (Plasdone S630 + Polysorbate 80) in simulated intestinal fluid; details: simulated intestinal fluid plus aqueous formulation slurry, aqueous with cosolvent or surfactant or cyclodextrin, thermodynamic from solid; SIF plus water containing 2% Plasdone S630 and 1% Polysorbate 80, 37° C.; read-out: equilibrium solubility in formulation/SIF system
Procedure: Simulated intestinal fluid (SIF) was prepared by dissolving 21.6 mg of sodium hydroxide, 168.8 mg of sodium dihydrogen phosphate dihydrate, 311.6 mg of sodium chloride, and 113.0 mg of SIF Powder Original (Biorelevant) in 50 mL of water. A 100-mL, round-bottom flask was charged with 10 mL of SIF and a stir bar. The flask was placed in a 37° C. bath and stirring was begun. A 20-mL vial was charged with 10 mL of water and placed in a 37° C. bath.
Based on the inhibitory effects found in the excipient screen, further studies with formulation slurries containing the cocrystals suspended in water were used, in which both Plasdone S-630 and Polysorbate 80 are dissolved. The formulation recipe and dissolution procedure are: bring 5 mL of simulated intestinal fluid (SIF) to 37° C., add about 6 mg of a cocrystal into 5 mL of water (at 37° C.) containing 2% Plasdone S630 and 1% Polysorbate 80 to give the formulation slurry, add the formulation slurry to the SIF, pull samples, filter, and analyze by HPLC. A control experiment was carried out in which DHEA was used instead of a cocrystal.
For FIGS. 44 and 45, to the […]-vial of SIF (20-mL vial was charged with 10 mL of water and placed in a 37° C. bath) 12.1 mg of DHEA (from sample TL876) was added. The vial was capped and shaken, and the resulting slurry was poured into the round-bottom flask. […] The supernatants were analyzed by HPLC. […]

**Q.** Which solubility ([1]; listed as DHEA (form S1)) does the source give for `C[C@]12CC[C@H](O)CC1=CC[C@@H]1[C@@H]2CC[C@]2(C)C(=O)CC[C@@H]12` [DHEA hydrate S1, Dehydroepiandrosterone] here?
**A.** about 17 μg/mL

**Q.** And the solubility thermodynamic ([1]; pH 6.8 phosphate buffer, pH 6.8, aqueous buffer, thermodynamic from solid, most stable form in the presence of water, read-out: equilibrium solubility)?
**A.** 17 µg/mL

**Q.** With `C[C@]12CC[C@H](O)CC1=CC[C@@H]1[C@@H]2CC[C@]2(C)C(=O)CC[C@@H]12` [DHEA polymorph form I (FI), Dehydroepiandrosterone] as the compound, how does the “solid form after slurrying in SIF” value [2] read?
**A.** mostly the hydrate S1 form

**Q.** And the “change in concentration of DHEA with time” value ([1]; 10 minutes, 30 minutes, 1 hour, 2 hours, 5 hours, overnight)?
**A.** no change in concentration of DHEA with time

**Q.** What about the “remaining solids after dissolution experiment” value ([1]; after overnight experiment) of the same compound?
**A.** DHEA form S2 (monohydrate)

**Q.** And the “time for transformation of anhydrate to monohydrate to be complete” value ([1]; aqueous dissolution study)?
**A.** about 2 hours

**Q.** And the solubility ([1]; pH 6.8 phosphate buffer, pH 6.8, aqueous buffer, thermodynamic from solid, read-out: solubility)?
**A.** ~30 µg/mL (≈ 104 µM)

**Q.** With `C[C@]12CC[C@H](O)CC1=CC[C@@H]1[C@@H]2CC[C@]2(C)C(=O)CC[C@@H]12` [DHEA, Dehydroepiandrosterone] as the compound, how does the solubility thermodynamic [3] read?
**A.** 120 to 130 µg/mL
